Source: patent US9580487B2, “Method of treating stomach or bowel-related disorders by administering glucagon-like-peptide-2 (GLP-2) analogues” (Zealand Pharma A/S, priority 2005, dated 2017)
Entries after “also recorded” stand apart in the source; their conditions may differ. No end group written: not given here.

Test system: not listed separately
Experiment: Chemical stability testing: incubation in HCl, NaOH, H2O2 or NH4HCO3 at 40° C., remaining purity by RP-HPLC
Assay type: physicochemical
Conditions: 0.1 M HCl, 40° C., 12 days
Protocol: The GLP-2 analogues were dissolved in purified water and subsequently diluted in solutions containing HCl, NaOH, H2O2 or NH4HCO3. The solutions were incubated at 40° C. to produce hydrolysis, deamidation and oxidation products. The samples were analyzed by RP-HPLC and the percentage of remaining intact compound was determined as a measure for the relative stability. The major degradation products were tentatively identified by LC-MS.
The GLP-2 analogues tested and the reference Gly^2-GLP-2, ZP1559 (SEQ ID NO:54), were dissolved in water and subsequently diluted into solutions containing HCl, NaOH, H2O2 or NH4HCO3. The samples were incubated at 40° C. to generate hydrolysis, deamidation and oxidation products, respectively. The compounds were analysed by RP-HPLC for purity of the original main peak and by LC-MS for confirmation of the identity by mass of the main peak and major degradation products.
The GLP-2 analogues were first dissolved in MQW to a concentration of 4 mg/ml and then further diluted in the stress solutions at a 1:1 ratio (e.g. 125 μl plus 125 μl). The final concentrations were 2 mg/ml of the GLP-2 analogues for stress conditions with 0.1 M HCl, 0.01M NaOH, 0.1 M NH4HCO3 and 0.5% H2O2, respectively.
The solutions were incubated at 40° C. in the dark and then diluted in Eluent A to a concentration of 0.5 mg/ml (addition of 750 μl) prior to analyses by RP-HPLC and by LC-MS.
The RP-HPLC analyses were performed on an Agilent Series 1100 HPLC system under control of the ChemStation (Revision A.08.03 [847]) software from Agilent Technologies, Inc. The raw data and the results of the peak integration were deposited on the ChemStore C/S server by the use of Agilent Technologies Revision B01.03 software.
The results are shown in Table 9 as the compound purity measured by RP-HPLC after incubation under stress conditions. This purity is a measure for the remaining intact compound after incubation in stress solutions, relative to the purity measured a T=0.

Substance	Stability during acid hydrolysis (in words)
[Gly2, Glu3, Ser8, Leu10, Ala11,16,24,28]hGLP-2(1-33)-NH2 (HGEGSFSSELATILDALAARDFIAWLIATKITD-NH2) [Compound 1858]	tendency of slightly higher stability
[Gly2, Thr7, Ser8, Leu10, Ala11,24]hGLP-2(1-30)-K6-NH2 [Compound 1820]	less stable than the remaining six candidates due to acid hydrolysis
[Gly2, Thr7, Ser8, Leu10, Ala11,24]hGLP-2(1-30)-NH2 (HGDGSFTSELATILDNLAARDFIAWLIQTK-NH2) [Compound 1834]	less stable than the remaining six candidates due to acid hydrolysis

Same assay, conditions: 40° C., 2 mg/ml, RP-HPLC, relative to the purity at T=0

Substance	Purity H2O2 0.5% 3 days	Purity HCl 0.1M 12 days
[Gly2, Glu3, Ser8, Leu10, Ala11,16,24,28]hGLP-2(1-33)-(Lys)6-NH2 (HGEGSFSSELATILDALAARDFIAWLIATKITDKKKKKK-NH2) [Compound 1849]	78%	64%
[Gly2, Glu3, Ser8, Leu10, Ala11,16,24,28]hGLP-2(1-33)-NH2 (HGEGSFSSELATILDALAARDFIAWLIATKITD-NH2) [Compound 1858]	60%	88%
[Gly2, Thr7, Ser8, Leu10, Ala11,24]hGLP-2(1-30)-K6-NH2 [Compound 1820]	62%	45%
[Gly2, Thr7, Ser8, Leu10, Ala11,24]hGLP-2(1-30)-NH2 (HGDGSFTSELATILDNLAARDFIAWLIQTK-NH2) [Compound 1834]	53%	38%

Same assay, conditions: 40° C., 2 mg/ml, pH 8, RP-HPLC, relative to the purity at T=0

Substance	Purity NH4HCO3 0.1M 6 days
[Gly2, Glu3, Ser8, Leu10, Ala11,16,24,28]hGLP-2(1-33)-(Lys)6-NH2 (HGEGSFSSELATILDALAARDFIAWLIATKITDKKKKKK-NH2) [Compound 1849]	86%
[Gly2, Glu3, Ser8, Leu10, Ala11,16,24,28]hGLP-2(1-33)-NH2 (HGEGSFSSELATILDALAARDFIAWLIATKITD-NH2) [Compound 1858]	91%
[Gly2, Thr7, Ser8, Leu10, Ala11,24]hGLP-2(1-30)-K6-NH2 [Compound 1820]	85%
[Gly2, Thr7, Ser8, Leu10, Ala11,24]hGLP-2(1-30)-NH2 (HGDGSFTSELATILDNLAARDFIAWLIQTK-NH2) [Compound 1834]	91%

Test system: male C57BL mice
Experiment: Screening for intestinal growth effects (small intestine and colon mass relative to body weight, small intestine-colon sensitivity index)
Assay type: in vivo
Conditions: 30 nmol/kg s.c. twice daily, ten days, equimolar [Gly2]GLP-2
Protocol: The ability of the present compounds to stimulate intestinal growth was determined in male C57BL mice. Individual groups (n=6) of mice were given 30 nmol/kg of each compound, s.c, twice daily for ten consecutive days. For comparison purposes other groups of animals were given either an equimolar dose of [Gly2]GLP-2 (SEQ ID NO:54) or vehicle (phosphate buffered saline, pH 7.4) in the same dosing regimen. Twenty-four hours after the last dose of compound had been given the mice were sacrificed and the small intestine (from the pylorus to the cecum) and the colon (intestine distal to cecum) was emptied and weighed. To correct for slight difference in body weight (BW), the organ mass of the small intestine (SI) and colon were expressed relative to BW. The non-selective reference compound [Gly2]GLP-2 (SEQ ID NO:54) has been reported to stimulate gastrointestinal growth in both esophagus, stomach, small intestine and colon and to evaluate differences in growth pattern induced by compounds, the small intestine-colon sensitivity index of compound X was calculated as:
(SI/Colon)X/(SI/Colon)[Gly2]GLP-2%
Compounds with a small intestine-colon sensitivity greater than or equal to 1.05 were considered relatively selective for the small intestine (Table 15).
Compounds with a small intestine-colon sensitivity smaller than or equal to 0.95 were considered relatively selective for the colon (Table 15).

Substance	Small intestine mass relative to [Gly2]GLP-2
[Gly2, Glu3, Ser8, Leu10, Ala11,16,24,28]hGLP-2(1-33)-(Lys)6-NH2 (HGEGSFSSELATILDALAARDFIAWLIATKITDKKKKKK-NH2) [Compound 1849]	increased small intestine mass relative to [Gly2]GLP-2
[Gly2, Glu3, Ser8, Leu10, Ala11,16,24,28]hGLP-2(1-33)-NH2 (HGEGSFSSELATILDALAARDFIAWLIATKITD-NH2) [Compound 1858]	increased small intestine mass relative to [Gly2]GLP-2
[Gly2, Thr7, Ser8, Leu10, Ala11,24]hGLP-2(1-30)-K6-NH2 [Compound 1820]	increased small intestine mass relative to [Gly2]GLP-2

Same assay, conditions: 30 nmol/kg s.c. twice daily, ten days; relative to [Gly2]GLP-2

Substance	Preferential growth of small intestine versus colon (small intestine-colon sensitivity)
[Gly2, Glu3, Ser8, Leu10, Ala11,16,24,28]hGLP-2(1-33)-(Lys)6-NH2 (HGEGSFSSELATILDALAARDFIAWLIATKITDKKKKKK-NH2) [Compound 1849]	supplementary increase in the weight of the small intestine without significant effecting the weight of the colon; also recorded: preferentially stimulating epithelial growth in the small intestine
[Gly2, Glu3, Ser8, Leu10, Ala11,16,24,28]hGLP-2(1-33)-NH2 (HGEGSFSSELATILDALAARDFIAWLIATKITD-NH2) [Compound 1858]	supplementary increase in the weight of the small intestine without significant effecting the weight of the colon; also recorded: preferentially stimulating epithelial growth in the small intestine
[Gly2, Thr7, Ser8, Leu10, Ala11,24]hGLP-2(1-30)-K6-NH2 [Compound 1820]	supplementary increase in the weight of the small intestine without significant effecting the weight of the colon; also recorded: preferentially stimulating epithelial growth in the small intestine
[Gly2, Thr7, Ser8, Leu10, Ala11,24]hGLP-2(1-30)-NH2 (HGDGSFTSELATILDNLAARDFIAWLIQTK-NH2) [Compound 1834]	without preferential growth in small intestine or colon
[Thr7, Leu10, Ala11, Ala24]hGLP-2 (1-30)-NH2 [Compound 1843]	preferentially stimulating epithelial growth in the colon
[Thr7, Ser8, Leu10, Lys11, Ala24]hGLP-2 (1-30)-NH2 [Compound 1842]	without preferential growth in small intestine or colon

Same assay, conditions: male C57BL mice, 30 nmol/kg s.c. twice daily for ten days

Substance	colon mass relative to body weight, % [Gly2]GLP-2
[Gly2, Glu3, Ser8, Leu10, Ala11,16,24,28]hGLP-2(1-33)-(Lys)6-NH2 (HGEGSFSSELATILDALAARDFIAWLIATKITDKKKKKK-NH2) [Compound 1849]	95 % [Gly2]GLP-2
[Gly2, Glu3, Ser8, Leu10, Ala11,16,24,28]hGLP-2(1-33)-NH2 (HGEGSFSSELATILDALAARDFIAWLIATKITD-NH2) [Compound 1858]	96 % [Gly2]GLP-2
[Thr7, Leu10, Ala11, Ala24]hGLP-2 (1-30)-NH2 [Compound 1843]	130 % [Gly2]GLP-2

Same assay, conditions: male C57BL mice, 30 nmol/kg s.c. twice daily for ten days; third value column

Substance	small intestine-colon sensitivity index, (SI/Colon)X/(SI/Colon)[Gly2]GLP-2 %
[Gly2, Glu3, Ser8, Leu10, Ala11,16,24,28]hGLP-2(1-33)-(Lys)6-NH2 (HGEGSFSSELATILDALAARDFIAWLIATKITDKKKKKK-NH2) [Compound 1849]	115 % [Gly2]GLP-2
[Gly2, Glu3, Ser8, Leu10, Ala11,16,24,28]hGLP-2(1-33)-NH2 (HGEGSFSSELATILDALAARDFIAWLIATKITD-NH2) [Compound 1858]	108 % [Gly2]GLP-2
[Thr7, Leu10, Ala11, Ala24]hGLP-2 (1-30)-NH2 [Compound 1843]	85 % [Gly2]GLP-2

Test system: male C57BL mice
Experiment: Dose-response effect on intestinal growth (SI mass, SI-Colon Sensitivity Index, colon and stomach mass)
Assay type: in vivo
Conditions: 5-405 nmol/kg s.c. b.i.d. for three days
Protocol: Values are means±SEM. *: P<0.05 relative to the equimolar dose of [Gly2]GLP-2 (SEQ ID NO:54).
FIG. 2 is a set of graphs showing full dose-response data of four small intestine selective compounds (compound nos. 1846 (SEQ ID NO:34), 1855 (SEQ ID NO:43), 1848 (SEQ ID NO:36), 1858 (SEQ ID NO:46)) on the Small Intestine (SI)-to-Colon Sensitivity Index mice relative to the non-selective reference compound [Gly2]GLP-2 (SEQ ID NO:54). Compounds were administered by subcutaneous injection b.i.d. for three days in C57BL mice at the following doses: 0 (vehicle), 5, 15, 45, 135, 405 nmol/kg (n=6/dose group). Responses at each dose level were compared with responses obtained at the same dose level in pair-treated mice treated with the non-selective reference compound [Gly2]GLP-2 (SEQ ID NO:54). The SI-Colon Sensitivity Index was calculated as SI-mass relative to colon mass and the Sensitivity Index at each dose level was normalized to the response observed with the non-selective reference compound [Gly2]GLP-2 (SEQ ID NO:54). […] Values are means±SEM. *: P<0.05 relative to the equimolar dose of [Gly2]GLP-2.
FIG. 4 is a set of graphs showing full dose-response data of three small intestine selective compounds (compound nos. 1857 (SEQ ID NO:45), 1820 (SEQ ID NO:10), and 1849 (SEQ ID NO:37)) on the Small Intestine (SI)-to-Colon Sensitivity Index mice relative to the non-selective reference compound [Gly2]GLP-2 (SEQ ID NO:54). Compounds were administered by subcutaneous injection b.i.d. for three days in C57BL mice at the following doses: 0 (vehicle), 5, 15, 45, 135, 405 nmol/kg (n=6/dose group). Responses at each dose level were compared with responses obtained at the same dose level in pair-treated mice treated with the non-selective reference compound [Gly2]GLP-2 (SEQ ID NO:54). The SI-Colon Sensitivity Index was calculated as SI-mass relative to colon mass and the Sensitivity Index at each dose level was normalized to the response observed with the non-selective reference compound [Gly2]GLP-2 (SEQ ID NO:54). […] Values are means±SEM. *: P<0.05 relative to the equimolar dose of [Gly2]GLP-2 (SEQ ID NO:54).
Compounds were administered by subcutaneous injection b.i.d. for three days in C57BL mice at the following doses: 0 (vehicle), 5, 15, 45, 135, 405 nmol/kg (n=6/dose group). […] Values are means±SEM. *: P<0.05 relative to the vehicle.
The dose-response effect of 1820 (SEQ ID NO:10), 1855 (SEQ ID NO:43), ZP1846 (SEQ ID NO:34), 1858 (SEQ ID NO:46), 1849 (SEQ ID NO:37), 1848 (SEQ ID NO:36), and 1857 (SEQ ID NO:45) on small intestinal mass was determined in male C57BL mice. Individual groups (n=6) of mice were given 5, 15, 45, 135 or 405 nmol/kg of each compound, s.c, twice daily for three consecutive days. For comparison purposes other groups of animals were given either equimolar doses of [Gly2]GLP-2 (SEQ ID NO:54) or vehicle (phosphate buffered saline, pH 7.4) in the same dosing regimen. Twenty-four hours after the last dose of compound had been given the mice were sacrificed and the small intestine (from the pylorus to the cecum emptied and weighed to determine the effect on small intestinal mass.

Substance	SI-Colon Sensitivity Index (SI mass relative to colon mass) relative to [Gly2]GLP-2	Small intestinal mass (SI-BW ratio), maximal response relative to [Gly2]GLP-2
[Gly2, Glu3, Ser8, Leu10, Ala11,16,24,28]hGLP-2(1-33)-(Lys)6-NH2 (HGEGSFSSELATILDALAARDFIAWLIATKITDKKKKKK-NH2) [Compound 1849]	increased maximal small intestinal sensitivity relative to [Gly2]GLP-2; also recorded: increased selectivity for causing growth of the small intestine relative to the colon	maximal responses that were significantly greater than [Gly2]GLP-2
[Gly2, Glu3, Ser8, Leu10, Ala11,16,24,28]hGLP-2(1-33)-NH2 (HGEGSFSSELATILDALAARDFIAWLIATKITD-NH2) [Compound 1858]	–	maximal responses that were significant greater than [Gly2]GLP-2
[Gly2, Thr7, Ser8, Leu10, Ala11,24]hGLP-2(1-30)-K6-NH2 [Compound 1820]	increased maximal small intestinal sensitivity relative to [Gly2]GLP-2	maximal responses that were significantly greater than [Gly2]GLP-2
